Where “and” joins values, the source holds several entries; their conditions need not be identical. Identical values can stand only once. Inconclusive results and toxic doses are left out. No stated cut-off is given here; in the data, active means T/C of 150% or more; inactive means T/C below 125%.
Tested on: L1210 leukemia ip in BDF1 mice, survival T/C
Test: NCI In Vivo Anticancer Drug Screen. Data for tumor model L1210 Leukemia (intraperitoneal) in B6D2F1 (BDF1) mice
Conditions: endpoint: mean survival time, higher = longer survival
How it was run: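 Survival endpoint. Drug-treated group vs vehicle group, expressed as T divided by C. Tumor passaged by transplantation.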

[1] = dose: 100.0 mg/kg/injection, schedule: Q01DX009 (ip), vehicle: other
[2] = dose: 12.5 mg/kg/injection, schedule: Q01DX009 (ip), vehicle: saline
[3] = dose: 25.0 mg/kg/injection, schedule: Q01DX009 (ip), vehicle: saline
[4] = dose: 12.5 mg/kg/injection, schedule: Q01DX009 (ip), vehicle: saline with Tween-80
[5] = dose: 25.0 mg/kg/injection, schedule: Q01DX009 (ip), vehicle: saline with Tween-80
[6] = dose: 50.0 mg/kg/injection, schedule: Q01DX001 (ip), vehicle: saline with Tween-80
[7] = dose: 50.0 mg/kg/injection, schedule: Q01DX001 (ip), vehicle: carboxymethylcellulose (CMC)
[8] = dose: 100.0 mg/kg/injection, schedule: Q01DX001 (ip), vehicle: carboxymethylcellulose (CMC)
[9] = dose: 200.0 mg/kg/injection, schedule: Q01DX001 (ip), vehicle: carboxymethylcellulose (CMC)
[10] = dose: 400.0 mg/kg/injection, schedule: Q01DX001 (ip), vehicle: carboxymethylcellulose (CMC)
[11] = dose: 100.0 mg/kg/injection, schedule: Q01DX009 (ip), vehicle: gum acacia
[12] = dose: 200.0 mg/kg/injection, schedule: Q01DX009 (ip), vehicle: gum acacia
[13] = dose: 400.0 mg/kg/injection, schedule: Q01DX009 (ip), vehicle: gum acacia
[14] = dose: 100.0 mg/kg/injection, schedule: Q01DX009 (ip), vehicle: saline with Tween-80
[15] = dose: 200.0 mg/kg/injection, schedule: Q01DX009 (ip), vehicle: saline with Tween-80

Measured: T/C

CC1CCC2C1C1C(CCC2(C)O)C1(C)C (stereo not drawn)
inactive: [1] 90 % of control | dose: 100.0 mg/kg/injection, schedule: Q04DX003 (ip), vehicle: saline sonified 103 % of control | dose: 200.0 mg/kg/injection, schedule: Q01DX009 (ip), vehicle: other 95 % of control | dose: 200.0 mg/kg/injection, schedule: Q04DX003 (ip), vehicle: saline sonified 103 % of control | dose: 400.0 mg/kg/injection, schedule: Q01DX009 (ip), vehicle: other 98 % of control | dose: 400.0 mg/kg/injection, schedule: Q04DX003 (ip), vehicle: saline sonified 102 % of control

OC(O)(C(F)(F)F)C(F)(F)F
inactive: dose: 12.5 mg/kg/injection, schedule: Q01DX005 (ip), vehicle: saline 108 % of control | [2] 95 % of control | dose: 25.0 mg/kg/injection, schedule: Q01DX005 (ip), vehicle: saline 108 % of control | [3] 104 % of control | dose: 50.0 mg/kg/injection, schedule: Q01DX005 (ip), vehicle: saline 104 % of control | dose: 50.0 mg/kg/injection, schedule: Q01DX009 (ip), vehicle: saline 92 % of control

CCCCCCCOC(CN)C(Cl)(Cl)Cl (stereo not drawn)
inactive: dose: 12.5 mg/kg/injection, schedule: Q01DX001 (ip), vehicle: saline with Tween-80 104 % of control | [4] 100 % of control and 104 % of control | dose: 25.0 mg/kg/injection, schedule: Q01DX001 (ip), vehicle: saline with Tween-80 100 % of control | [5] 97 % of control and 91 % of control | dose: 25.0 mg/kg/injection, schedule: Q04DX002 (ip), vehicle: saline with Tween-80 103 % of control and 108 % of control | [6] 94 % of control | dose: 50.0 mg/kg/injection, schedule: Q04DX002 (ip), vehicle: saline with Tween-80 103 % of control and 105 % of control

COC(=O)CNc1cccc([N+](=O)[O-])c1
inactive: dose: 100.0 mg/kg/injection, schedule: Q04DX003 (ip), vehicle: Klucel (hydroxypropylcellulose) (HPC) 95 % of control | dose: 200.0 mg/kg/injection, schedule: Q04DX003 (ip), vehicle: Klucel (hydroxypropylcellulose) (HPC) 102 % of control | dose: 400.0 mg/kg/injection, schedule: Q04DX003 (ip), vehicle: Klucel (hydroxypropylcellulose) (HPC) 101 % of control

CCN(CC)CC(O)Cn1cnc2c(N)ncnc21 (stereo not drawn)
inactive: dose: 50.0 mg/kg/injection, schedule: Q04DX003 (ip), vehicle: saline 104 % of control | dose: 100.0 mg/kg/injection, schedule: Q04DX003 (ip), vehicle: saline 111 % of control | dose: 200.0 mg/kg/injection, schedule: Q04DX003 (ip), vehicle: saline 93 % of control

N#CC(Nc1c(N)nc(-c2ccccc2)nc1N)c1ccc(N(CCCl)CCCl)cc1 (stereo not drawn)
inactive: [7] 100 % of control | [8] 115 % of control | [9] 100 % of control | [10] 105 % of control

Cc1ccc(S(=O)(=O)N(CCCc2c(-c3ccccc3)nc(N)[nH]c2=O)c2ccccc2)cc1
inactive: [11] 101 % of control | [12] 100 % of control | [13] 99 % of control

O=c1c2nccnc2[nH]n1-c1ccccc1
inactive: dose: 25.0 mg/kg/injection, schedule: Q04DX003 (ip), vehicle: Klucel (hydroxypropylcellulose) (HPC) 90 % of control | dose: 50.0 mg/kg/injection, schedule: Q04DX003 (ip), vehicle: Klucel (hydroxypropylcellulose) (HPC) 95 % of control

C1COC(NC2CC3CCC2C3)=N1 (stereo not drawn)
inactive: dose: 6.25 mg/kg/injection, schedule: Q01DX009 (ip), vehicle: saline with Tween-80 94 % of control | dose: 6.25 mg/kg/injection, schedule: Q04DX003 (ip), vehicle: saline with Tween-80 94 % of control | [4] 104 % of control | dose: 12.5 mg/kg/injection, schedule: Q04DX003 (ip), vehicle: saline with Tween-80 91 % of control | [5] 100 % of control | dose: 25.0 mg/kg/injection, schedule: Q04DX003 (ip), vehicle: saline with Tween-80 97 % of control

CN(C)c1ccc(/C=N/Nc2c([N+](=O)[O-])cc(C(F)(F)F)cc2[N+](=O)[O-])cc1
inactive: [11] 90 % of control | [12] 88 % of control | [13] 88 % of control

O=C(O)CN(Cc1ccccc1)Sc1ccccc1[N+](=O)[O-]
inactive: dose: 50.0 mg/kg/injection, schedule: Q01DX009 (ip), vehicle: other 98 % of control | [1] 91 % of control | dose: 100.0 mg/kg/injection, schedule: Q04DX003 (ip), vehicle: other 98 % of control | dose: 200.0 mg/kg/injection, schedule: Q04DX003 (ip), vehicle: other 96 % of control

Oc1ccc(C2(c3ccc(O)cc3)CCCCC2)cc1
inactive: dose: 25.0 mg/kg/injection, schedule: Q01DX009 (ip), vehicle: alcohol 112 % of control | dose: 50.0 mg/kg/injection, schedule: Q01DX009 (ip), vehicle: alcohol 117 % of control | dose: 100.0 mg/kg/injection, schedule: Q01DX009 (ip), vehicle: alcohol 87 % of control | [14] 89 % of control | [15] 92 % of control

[N-]=[N+]=NCCC[CH2][Pb]([c]1ccccc1)([c]1ccccc1)[c]1ccccc1
inactive: [7] 96 % of control | [8] 102 % of control | [9] 100 % of control | [10] 96 % of control

OCCNCCN1CCN(CCCN2c3ccccc3Sc3ccc(C(F)(F)F)cc32)CC1
inactive: dose: 6.25 mg/kg/injection, schedule: Q01DX009 (ip), vehicle: saline 111 % of control | dose: 6.25 mg/kg/injection, schedule: Q04DX003 (ip), vehicle: saline 104 % of control | [2] 105 % of control | dose: 12.5 mg/kg/injection, schedule: Q04DX003 (ip), vehicle: saline 101 % of control | [3] 88 % of control | dose: 25.0 mg/kg/injection, schedule: Q04DX003 (ip), vehicle: saline 95 % of control

Cc1c(-c2ccccc2)sc(/N=C/c2cc(Br)cc(Br)c2O)c1C#N
inactive: [14] 99 % of control and 111 % of control | dose: 100.0 mg/kg/injection, schedule: Q04DX002 (ip), vehicle: saline with Tween-80 112 % of control and 90 % of control | [15] 97 % of control and 86 % of control | dose: 200.0 mg/kg/injection, schedule: Q04DX002 (ip), vehicle: saline with Tween-80 93 % of control and 102 % of control | dose: 400.0 mg/kg/injection, schedule: Q01DX009 (ip), vehicle: saline with Tween-80 94 % of control | dose: 400.0 mg/kg/injection, schedule: Q04DX002 (ip), vehicle: saline with Tween-80 106 % of control and 107 % of control

CC(=O)Nc1c(Cl)c(Cl)c2c(c1Cl)Cc1cc(Cl)c(Cl)cc1-2
inactive: dose: 50.0 mg/kg/injection, schedule: Q01DX009 (ip), vehicle: acetone 93 % of control | dose: 50.0 mg/kg/injection, schedule: Q04DX003 (ip), vehicle: acetone 94 % of control | dose: 100.0 mg/kg/injection, schedule: Q01DX009 (ip), vehicle: acetone 95 % of control | dose: 100.0 mg/kg/injection, schedule: Q04DX003 (ip), vehicle: acetone 93 % of control | dose: 200.0 mg/kg/injection, schedule: Q01DX009 (ip), vehicle: acetone 97 % of control | dose: 200.0 mg/kg/injection, schedule: Q04DX003 (ip), vehicle: acetone 93 % of control

CCN(CC)Cc1cccc(Nc2cc(C)nc(/N=C(\N)Nc3ccc(Cl)c(Cl)c3)n2)c1
inactive: dose: 75.0 mg/kg/injection, schedule: Q01DX001 (ip), vehicle: other 98 % of control | dose: 150.0 mg/kg/injection, schedule: Q01DX001 (ip), vehicle: other 95 % of control | dose: 300.0 mg/kg/injection, schedule: Q01DX001 (ip), vehicle: other 95 % of control

O=C1CSC(=S)N1/N=C/c1c[nH]c2ccc(Br)cc12
inactive: dose: 75.0 mg/kg/injection, schedule: Q01DX001 (ip), vehicle: carboxymethylcellulose (CMC) 100 % of control | dose: 150.0 mg/kg/injection, schedule: Q01DX001 (ip), vehicle: carboxymethylcellulose (CMC) 97 % of control

O=C1c2ccccc2-c2ccc(N3C(=O)c4ccccc4C3=O)cc21
inactive: dose: 16.5 mg/kg/injection, schedule: Q01DX001 (ip), vehicle: saline with Tween-80 88 % of control | dose: 37.5 mg/kg/injection, schedule: Q01DX001 (ip), vehicle: saline with Tween-80 92 % of control | [6] 95 % of control | dose: 100.0 mg/kg/injection, schedule: Q01DX001 (ip), vehicle: saline with Tween-80 91 % of control

— PubChem BioAssay AID248 (DTP/NCI, 2004)
